Data as given in patent US10112937B2, “P2X7 modulators and methods of use” (Janssen Pharmaceutica NV, priority 2013, dated 2018).

Biological target: human P2X7 (Homo sapiens (Human), UniProt Q99572)
Assay: P2X7 antagonism in human PBMCs (IL-1β release after LPS + Bz-ATP, ELISA)
Assay type: cell-based
Settings: human PBMCs; for PBMC 1 μM (% control): test compound 1 μM
Description: P2X7 Antagonism in Human Peripheral Blood Mononuclear Cells (PBMCs) and Human Whole Blood.
Human blood was collected using a blood donor program. PBMCs were isolated from blood using a Ficoll density gradient technique. Briefly, blood was laid on Ficoll solution and centrifuged at RT for 20 minutes at 2000 rpm. The buffy layer (between red blood cells and plasma) was carefully collected by aspiration, washed with PBS and centrifuged again at 1500 rpm for 15 minutes. The resulting cell pellet was washed and plated on 96 well-plates for experiments. For the Human Whole Blood experiments, 150 μl of human blood was platted on 96 well-plates. Lipopolysaccharide (LPS) (30 ng/ml) was added to each well and incubated for 1 hour. Test compounds were then added and incubated for 30 minutes. The P2X7 agonist, 2′(3′)-O-(4-benzoylbenzoyl) adenosine 5′ triphosphate (Bz-ATP) was then added at a final concentration of 0.5 mM (PBMC) or 1 mM (blood). Cells were incubated for an additional 1.5 hours. At that point, supernatant was collected and stored for IL-1β assay using manufacturer's protocol for enzyme-linked immunosorbent assay (ELISA). Data was expressed as percent control, where control is defined as the difference in IL-1β release in LPS+Bz-ATP samples and LPS only samples. Data was plotted as response (% control) versus concentration to generate IC50 values. […] Data are analyzed and graphed on Graphpad Prism 5. For analysis, each concentration point is averaged from triplicate values and the averaged values are plotted on Graphpad Prism.

Chain of human P2X7 (Q99572 whole entry): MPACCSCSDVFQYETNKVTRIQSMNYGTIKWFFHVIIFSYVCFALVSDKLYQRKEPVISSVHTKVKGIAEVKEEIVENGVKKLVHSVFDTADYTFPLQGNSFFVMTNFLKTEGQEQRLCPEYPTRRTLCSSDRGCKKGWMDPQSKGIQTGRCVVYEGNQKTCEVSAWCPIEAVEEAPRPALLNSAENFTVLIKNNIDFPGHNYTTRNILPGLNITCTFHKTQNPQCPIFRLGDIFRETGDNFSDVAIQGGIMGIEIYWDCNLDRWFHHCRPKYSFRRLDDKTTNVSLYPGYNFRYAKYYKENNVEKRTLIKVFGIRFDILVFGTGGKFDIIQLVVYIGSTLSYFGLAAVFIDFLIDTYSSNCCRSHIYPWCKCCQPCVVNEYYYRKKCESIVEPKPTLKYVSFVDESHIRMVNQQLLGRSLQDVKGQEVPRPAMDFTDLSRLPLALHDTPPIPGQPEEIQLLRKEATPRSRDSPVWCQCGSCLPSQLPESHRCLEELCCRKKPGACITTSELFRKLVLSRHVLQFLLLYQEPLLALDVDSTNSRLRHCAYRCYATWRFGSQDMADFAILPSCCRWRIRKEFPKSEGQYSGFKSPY

PBMC 10 μM (% control) (test compound 10 μM)	PBMC 1 μM (% control)	Compound	other results
113.7	–	C[C@H]1c2nnn(-c3cccc(C(F)(F)F)n3)c2CCN1C(=O)c1cccc(C(F)(F)F)c1Cl (single isomer, unassigned) [Example 380, (S*)-(2-chloro-3-(trifluoromethyl)phenyl)(4-methyl-1-(6-(trifluoromethyl)pyridin-2-yl)-6,7-dihydro-1H-[1,2,3]triazolo[4,5-c]pyridin-5(4H)-yl)methanone]	–
87.3	–	Cc1cc(-n2nnc3c2CCN(C(=O)c2cccc(C(F)(F)F)c2Cl)[C@H]3C)ncc1F (single isomer, unassigned) [Example 383, (S*)-(2-chloro-3-(trifluoromethyl)phenyl)(1-(5-fluoro-4-methylpyridin-2-yl)-4-methyl-6,7-dihydro-1H-[1,2,3]triazolo[4,5-c]pyridin-5(4H)-yl)methanone]	–
107.5	–	Cc1cccc(-n2nnc3c2CCN(C(=O)c2cccc(C(F)(F)F)c2F)[C@@H]3C)n1 (single isomer, unassigned) [Example 386, (R*)-(2-fluoro-3-(trifluoromethyl)phenyl)(4-methyl-1-(6-methylpyridin-2-yl)-6,7-dihydro-1H-[1,2,3]triazolo[4,5-c]pyridin-5(4H)-yl)methanone]	–
112.1	–	Cc1ccnc(-n2nnc3c2CCN(C(=O)c2cccc(Cl)c2Cl)[C@@H]3C)n1 (single isomer, unassigned) [Example 391, (R*)-(2,3-dichlorophenyl)(4-methyl-1-(4-methylpyrimidin-2-yl)-6,7-dihydro-1H-[1,2,3]triazolo[4,5-c]pyridin-5(4H)-yl)methanone]	–
3.7	–	CC1c2ncn(-c3ccc(F)cn3)c2CCN1C(=O)c1cccc(C(F)(F)F)c1Cl (stereo not drawn) [Example 11, (2-Chloro-3-(trifluoromethyl)phenyl)(1-(5-fluoropyridin-2-yl)-4-methyl-6,7-dihydro-1H-imidazo[4,5-c]pyridin-5(4H)-yl)methanone]	–
–	6.5	CC1c2ncn(-c3ccccn3)c2CCN1C(=O)c1cccc(C(F)(F)F)c1Cl (stereo not drawn) [Example 17, (2-Chloro-3-(trifluoromethyl)phenyl)(4-methyl-1-(pyridin-2-yl)-6,7-dihydro-1H-imidazo[4,5-c]pyridin-5(4H)-yl)methanone]	–
–	5.3	CC1c2ncn(-c3ccc(F)cc3)c2CCN1C(=O)c1cccc(C(F)(F)F)c1Cl (stereo not drawn) [Example 18, (2-Chloro-3-(trifluoromethyl)phenyl)(1-(4-fluorophenyl)-4-methyl-6,7-dihydro-1H-imidazo[4,5-c]pyridin-5(4H)-yl)methanone]	–
5.8	–	O=C(c1cccc(C(F)(F)F)c1Cl)N1CCc2c(nnn2-c2ncccn2)C1 [Example 65, 5-{[2-Chloro-3-(trifluoromethyl)phenyl]carbonyl}-1-pyrimidin-2-yl-4,5,6,7-tetrahydro-1H-[1,2,3]triazolo[4,5-c]pyridine]	–
–	4.3	CC1c2nnn(-c3cnccn3)c2CCN1C(=O)c1cccc(C(F)(F)F)c1Cl (stereo not drawn) [Example 73, 5-{[2-Chloro-3-(trifluoromethyl)phenyl]carbonyl}-4-methyl-1-pyrazin-2-yl-4,5,6,7-tetrahydro-1H-[1,2,3]triazolo[4,5-c]pyridine]	–
4.6	–	CC1c2nnn(-c3ncccn3)c2CCN1C(=O)c1cccc(C(F)(F)F)c1Cl (stereo not drawn) [Example 80, 5-{[2-Chloro-3-(trifluoromethyl)phenyl]carbonyl}-4-methyl-1-pyrimidin-2-yl-4,5,6,7-tetrahydro-1H-[1,2,3]triazolo[4,5-c]pyridine]	–

Continued, molecule first:

Compound	PBMC 10 μM (% control) (test compound 10 μM)	PBMC 1 μM (% control)	other results
Cc1cccc(-n2nnc3c2CCN(C(=O)c2cccc(Cl)c2Cl)[C@@H]3C)n1 (single isomer, unassigned) [Example 389, (R*)-(2,3-dichlorophenyl)(4-methyl-1-(6-methylpyridin-2-yl)-6,7-dihydro-1H-[1,2,3]triazolo[4,5-c]pyridin-5(4H)-yl)methanone]	88.9	–	–
Cc1cccc(-n2nnc3c2CCN(C(=O)c2cccc(Cl)c2Cl)[C@H]3C)n1 (single isomer, unassigned) [Example 390, (S*)-(2,3-dichlorophenyl)(4-methyl-1-(6-methylpyridin-2-yl)-6,7-dihydro-1H-[1,2,3]triazolo[4,5-c]pyridin-5(4H)-yl)methanone]	6.5	–	–
Cc1ccnc(-n2nnc3c2CCN(C(=O)c2cccc(Cl)c2Cl)[C@@H]3C)c1 (single isomer, unassigned) [Example 394, (R*)-(2,3-dichlorophenyl)(4-methyl-1-(4-methylpyridin-2-yl)-6,7-dihydro-1H-[1,2,3]triazolo[4,5-c]pyridin-5(4H)-yl)methanone]	6.2	–	–
Cc1ccnc(-n2nnc3c2CCN(C(=O)c2cccc(C(F)(F)F)c2Cl)[C@H]3C)n1 (single isomer, unassigned) [Example 439, (S*)-(2-chloro-3-(trifluoromethyl)phenyl)(4-methyl-1-(4-methylpyrimidin-2-yl)-6,7-dihydro-1H-[1,2,3]triazolo[4,5-c]pyridin-5(4H)-yl)methanone]	–	–	PBMC 10 μM (% control) (10 μM test compound, LPS + Bz-ATP): 1.2 % control
O=C(c1cccc(Cl)c1Cl)N1CCc2c(ncn2-c2ccccc2)C1 [Example 3, (2,3-Dichlorophenyl)(1-phenyl-6,7-dihydro-1H-imidazo[4,5-c]pyridin-5(4H)-yl)methanone]	–	23.0	–
O=C(c1cccc(Cl)c1Cl)N1CCc2c(ncn2-c2ccccn2)C1 [Example 4, (2,3-Dichlorophenyl)(1-(pyridin-2-yl)-6,7-dihydro-1H-imidazo[4,5-c]pyridin-5(4H)-yl)methanone]	−3.7	–	–
CC1c2ncn(-c3ccc(F)cc3)c2CCN1C(=O)c1cccc(C(F)(F)F)c1F (stereo not drawn) [Example 20, (2-Fluoro-3-(trifluoromethyl)phenyl)(1-(4-fluorophenyl)-4-methyl-6,7-dihydro-1H-imidazo[4,5-c]pyridin-5(4H)-yl)methanone]	8.6	–	–
O=C(c1cccc(C(F)(F)F)c1Cl)N1CCc2c(ncn2-c2ccccc2)C1CO (stereo not drawn) [Example 30, (5-{[2-Chloro-3-(trifluoromethyl)phenyl]carbonyl}-1-phenyl-4,5,6,7-tetrahydro-1H-imidazo[4,5-c]pyridin-4-yl)methanol]	–	87.0	–
Cc1nc2c(n1-c1ccccc1)CCN(C(=O)c1cccc(C(F)(F)F)c1Cl)C2 [Example 37, (2-Chloro-3-(trifluoromethyl)phenyl)(2-methyl-1-phenyl-6,7-dihydro-1H-imidazo[4,5-c]pyridin-5(4H)-yl)methanone]	−9.1	–	–
O=C(c1cccc(C(F)(F)F)c1Cl)N1CCc2c(nc(C(F)(F)F)n2-c2ccccc2)C1 [Example 38, (2-Chloro-3-(trifluoromethyl)phenyl)(1-phenyl-2-(trifluoromethyl)-6,7-dihydro-1H-imidazo[4,5-c]pyridin-5(4H)-yl)methanone]	−0.3	–	–
O=C(c1cccc2c1OC(F)(F)O2)N1CCc2c(ncn2-c2ccccc2)C1 [Example 50, 5-[(2,2-Difluoro-1,3-benzodioxol-4-yl)carbonyl]-1-phenyl-4,5,6,7-tetrahydro-1H-imidazo[4,5-c]pyridine]	–	96.0	–
O=C(c1cccc(C(F)(F)F)c1Cl)N1C=Cc2c(ncn2-c2cnccn2)C1 [Example 54, 5-{[2-Chloro-3-(trifluoromethyl)phenyl]carbonyl}-1-pyrazin-2-yl-4,5-dihydro-1H-imidazo[4,5-c]pyridine]	–	8.6	–
O=C(c1cccc(Cl)c1Cl)N1CCc2c(nc(C(F)(F)F)n2-c2ccccc2)C1 [Example 58, 5-[(2,3-Dichlorophenyl)carbonyl]-1-phenyl-2-(trifluoromethyl)-4,5,6,7-tetrahydro-1H-imidazo[4,5-c]pyridine]	−2.0	–	–
O=C(c1cccc(Cl)c1Cl)N1CCc2c(ncn2-c2ccn[nH]2)C1 [Example 60, 5-[(2,3-Dichlorophenyl)carbonyl]-1-(1H-pyrazol-5-yl)-4,5,6,7-tetrahydro-1H-imidazo[4,5-c]pyridine]	8.4	–	–
O=C(c1cccc(Cl)c1Cl)N1CCc2c(nnn2-c2ccccc2)C1 [Example 62, 5-[(2,3-Dichlorophenyl)carbonyl]-1-phenyl-4,5,6,7-tetrahydro-1H-[1,2,3]triazolo[4,5-c]pyridine]	–	5.2	–
O=C(c1cccc(C(F)(F)F)c1F)N1CCc2c(nnn2-c2cnccn2)C1 [Example 69, 5-{[2-Fluoro-3-(trifluoromethyl)phenyl]carbonyl}-1-pyrazin-2-yl-4,5,6,7-tetrahydro-1H-[1,2,3]triazolo[4,5-c]pyridine]	6.8	–	–
CC1c2nnn(-c3cnccn3)c2C=CN1C(=O)c1cccc(C(F)(F)F)c1Cl (stereo not drawn) [Example 72, 5-{[2-Chloro-3-(trifluoromethyl)phenyl]carbonyl}-4-methyl-1-pyrazin-2-yl-4,5-dihydro-1H-[1,2,3]triazolo[4,5-c]pyridine]	–	−5.7	–
O=C(c1cccc(C(F)(F)F)c1Cl)N1C=Cc2c(nnn2-c2cnccn2)C1c1ccccc1 (stereo not drawn) [Example 76, 5-{[2-Chloro-3-(trifluoromethyl)phenyl]carbonyl}-4-phenyl-1-pyrazin-2-yl-4,5-dihydro-1H-[1,2,3]triazolo[4,5-c]pyridine]	–	1.6	–
CC1c2nnn(-c3ccc(F)cc3)c2C=CN1C(=O)c1cccc(C(F)(F)F)c1Cl (stereo not drawn) [Example 81, 5-{[2-Chloro-3-(trifluoromethyl)phenyl]carbonyl}-1-(4-fluorophenyl)-4-methyl-4,5-dihydro-1H-[1,2,3]triazolo[4,5-c]pyridine]	5.9	–	–
CC1c2nnn(-c3ncccc3F)c2C=CN1C(=O)c1cccc(C(F)(F)F)c1Cl (stereo not drawn) [Example 82, 5-{[2-Chloro-3-(trifluoromethyl)phenyl]carbonyl}-1-(3-fluoropyridin-2-yl)-4-methyl-4,5-dihydro-1H-[1,2,3]triazolo[4,5-c]pyridine]	7.9	–	–
